Experimental data from patent publication US20050096354A1 (published 2005).

Point of comparison: N#Cc1nn(-c2c(Cl)cc(C(F)(F)F)cc2Cl)c(N)c1-c1cc(Br)no1, melting point 227 °C. Against it:
- Cc1ccc(-c2c(C#N)nn(-c3c(Cl)cc(C(F)(F)F)cc3Cl)c2N)cc1 — higher, 243 to 244 °C
- N#Cc1nn(-c2c(Cl)cc(C(F)(F)F)cc2Cl)c(N)c1-c1ccccc1 — lower, 198 to 199 °C
- N#Cc1nn(-c2c(Cl)cc(C(F)(F)F)cc2Cl)c(N)c1-c1cccc([N+](=O)[O-])c1 — lower, 212 to 214 °C
- N#Cc1nn(-c2c(Cl)cc(C(F)(F)F)cc2Cl)c(N)c1-c1ccc(Br)cc1 — higher, 242 to 244 °C
- N#Cc1nn(-c2c(Cl)cc(C(F)(F)F)cc2Cl)c(N)c1-c1ccc(Cl)cc1 — higher, 235 to 237 °C
- N#Cc1nn(-c2c(Cl)cc(C(F)(F)F)cc2Cl)c(N)c1-c1ccc(F)cc1 — lower, 222 to 223 °C
- N#Cc1nn(-c2c(Cl)cc(C(F)(F)F)cc2Cl)c(N)c1-c1cc(Cl)cc(Cl)c1 — higher, 228 to 230 °C
- N#Cc1nn(-c2c(Cl)cc(C(F)(F)F)cc2Cl)c(N)c1-c1ccc(F)c(Cl)c1 — lower, 197 to 198 °C
- COC(=O)c1cccc(-c2c(C#N)nn(-c3c(Cl)cc(C(F)(F)F)cc3Cl)c2N)c1 — lower, 214 to 216 °C
- N#Cc1nn(-c2c(Cl)cc(C(F)(F)F)cc2Cl)c(N)c1-c1cccc(N)c1 — lower, 187 °C
- COc1ccc(-c2c(C#N)nn(-c3c(Cl)cc(C(F)(F)F)cc3Cl)c2N)cc1 — lower, 222 °C
- N#Cc1nn(-c2c(Cl)cc(C(F)(F)F)cc2Cl)c(N)c1-c1ccc2c(c1)OCO2 — lower, 222 °C
- COc1ccc(-c2c(C#N)nn(-c3c(Cl)cc(C(F)(F)F)cc3Cl)c2N)cc1OC — higher, 250 °C
- N#Cc1nn(-c2c(Cl)cc(C(F)(F)F)cc2Cl)c(N)c1-c1cccc(F)c1 — lower, 164 °C
- N#Cc1nn(-c2c(Cl)cc(C(F)(F)F)cc2Cl)c(N)c1-c1cccc(Cl)c1 — lower, 161 to 162 °C
- N#Cc1nn(-c2c(Cl)cc(C(F)(F)F)cc2Cl)c(N)c1-c1ccccc1F — lower, 197 °C
- COc1ccccc1-c1c(C#N)nn(-c2c(Cl)cc(C(F)(F)F)cc2Cl)c1N — lower, 193 °C
- Cc1ccccc1-c1c(C#N)nn(-c2c(Cl)cc(C(F)(F)F)cc2Cl)c1N — lower, 199 to 202 °C
- N#Cc1nn(-c2c(Cl)cc(C(F)(F)F)cc2Cl)c(N)c1-c1ccccc1C(F)(F)F — lower, 210 to 212 °C
- N#Cc1nn(-c2c(Cl)cc(C(F)(F)F)cc2Cl)c(N)c1-c1ccccc1Cl — lower, 192 to 193 °C
- N#Cc1nn(-c2c(Cl)cc(C(F)(F)F)cc2Cl)c(N)c1-c1cccc2ccccc12 — lower, 208 °C
- N#Cc1nn(-c2c(Cl)cc(C(F)(F)F)cc2Cl)c(N)c1-c1cccnc1 — higher, 265 to 267 °C
- N#Cc1nn(-c2c(Cl)cc(C(F)(F)F)cc2Cl)c(N)c1-c1cccs1 — lower, 206 to 207 °C
- N#Cc1nn(-c2c(Cl)cc(C(F)(F)F)cc2Cl)c(N)c1-c1ccsc1 — lower, 210 to 212 °C
- N#Cc1nn(-c2c(Cl)cc(C(F)(F)F)cc2Cl)c(N)c1-c1ccoc1 — lower, 180 to 181 °C
- N#Cc1nn(-c2c(Cl)cccc2Cl)c(N)c1-c1ccco1 — lower, 222.6 °C
- Cc1nc(-c2c(C#N)nn(-c3c(Cl)cc(C(F)(F)F)cc3Cl)c2N)cs1 — not separable, 226 to 228 °C
- N#Cc1nn(-c2c(Cl)cc(C(F)(F)F)cc2Cl)c(N)c1-c1ccc(Br)s1 — lower, 214 °C
- N#Cc1nn(-c2c(Cl)cc(C(F)(F)F)cc2Cl)c(N)c1-c1ccc(SC(F)(F)F)s1 — lower, 162 to 163 °C
- N#Cc1nn(-c2c(Cl)cc(C(F)(F)F)cc2Cl)c(N)c1-c1onc(Br)c1Br — higher, 279 °C
- N#Cc1nn(-c2c(Cl)cc(C(F)(F)F)cc2Cl)c(N)c1-c1ccoc1[S+]([O-])C(F)(F)F (stereo not drawn) — lower, 141 to 142 °C
- N#Cc1nn(-c2c(Cl)cc(C(F)(F)F)cc2Cl)c(N)c1-c1ccc(C(F)(F)F)o1 — lower, 148 to 151 °C
- N#Cc1nn(-c2c(Cl)cc(C(F)(F)F)cc2Cl)c(N)c1-c1cc(Cl)oc1Cl — lower, 193 to 194 °C
- N#Cc1nn(-c2c(Cl)cc(C(F)(F)F)cc2Cl)c(N)c1C1CC1(Br)Br (stereo not drawn) — lower, 178 to 179 °C

For N#Cc1nn(-c2c(Cl)cc(C(F)(F)F)cc2Cl)c(N)c1-c1ccncc1, the melting point was 266 to 268 °C (dec.).
